# Results: PubChem BioAssay AID504344 (Broad Institute, 2011)
# Activity calls are given as the source filed them.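 The calls were made as follows: active = fitted curve reaches 10% of the positive control caspase activation at or below the top valid tested dose; inactive = signal shifts the opposite way, plus the rest.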
# Test system: not listed separately
# Test: caspase signal in Bax/Bak-deficient fibroblasts – cell-based, mouse embryonic fibroblasts, dry powder, set 2, counter-screen for Bcl2-A1 inhibitor project, dose response (AID 504344)
# Settings: Bax/Bak-/- MEF caspase activation, CaspaseGlo luminescence, 3 h; at 35 µM (top of the series)
row,Compound,caspase activation
1,O=c1oc2ccccc2c(Nc2cc(Cl)cc(Cl)c2)c1[N+](=O)[O-],-0.079% (inactive)
2,Cc1ccc(Sc2cc(=O)n(C)c3ccccc23)cc1,-0.817% (inactive)
3,CCOC(=O)N1CCN(c2c([N+](=O)[O-])c(=O)n(C)c3ccccc23)CC1,-0.062% (inactive)
4,Cn1c(=O)c([N+](=O)[O-])c(-n2cnc3ccccc32)c2ccccc21,0.662% (inactive)
5,CCSc1c([N+](=O)[O-])c(=O)oc2ccccc12,0.365% (inactive)
6,O=c1oc2ccccc2c(N2CCCCC2)c1[N+](=O)[O-],-0.245% (inactive)
7,O=c1oc2ccccc2c(Cl)c1[N+](=O)[O-],-0.981% (inactive)
8,Cn1c(=O)c([N+](=O)[O-])c(Nc2ccc(Cl)cc2)c2ccccc21,0.654% (inactive)
9,O=[N+]([O-])c1cnc2ccccc2c1Sc1ccccc1,2.51% (inactive)
10,C/C1=C/C(=O)O[C@@H]2C[C@@H](CC[C@H](C)/C=C\CC1)O[C@@](O)(C1CSC(=O)N1)C2 (stereo partly specified),0.173% (inactive)
11,CN1C(=O)C(C)(C)N(Cc2ccccc2)c2ccccc21,-0.187% (inactive)
12,Cc1ccc(Nc2c([N+](=O)[O-])c(=O)oc3ccccc23)cc1,-0.021% (inactive)
13,Cc1ccc(Sc2c([N+](=O)[O-])cnc3ccccc23)cc1,3.45% (inactive)
14,Cc1ccc(Sc2c([N+](=O)[O-])c(=O)n(C)c3ccccc23)cc1,1.18% (inactive)
15,CCOCCCNc1c([N+](=O)[O-])c(=O)n(C)c2ccccc12,0.166% (inactive)
16,Cn1c(=O)c([N+](=O)[O-])c(Cl)c2ccccc21,0.515% (inactive)
17,O=C(Oc1cccc(/C=N/Nc2nc(Nc3ccccc3)nc(N3CCOCC3)n2)c1)c1ccco1,0.026% (inactive)
18,Cc1ccc(Nc2c([N+](=O)[O-])c(=O)n(C)c3ccccc23)cc1,0.3% (inactive)
19,O=c1oc2ccccc2c(Sc2ccccc2)c1[N+](=O)[O-],-0.438% (inactive)
20,Cn1c(=O)c([N+](=O)[O-])c(Oc2ccccc2)c2ccccc21,0.272% (inactive)

# Test system: Bax/Bak-/- MEF caspase activation, CaspaseGlo luminescence, 3 h
# Test: as above
# Settings: not given
row,Compound,AC10
1,Cc1ccc(Sc2c([N+](=O)[O-])c(=O)oc3ccccc23)cc1,> 35 µM (inactive)
